Paper PMC2917805 (Journal of medicinal chemistry, 2010)

What was measured:
[1] = test system: quinone reductase 1 (QR1); test: QR activity in cell culture; assay type: cell-based, murine; conditions: Hepa 1c1c7 cells
[2] = DPPH free-radical scavenging
[3] = Stability in RPMI 1640 cell culture medium; assay type: physicochemical
[4] = test system: HL-60 human acute leukemia cells; test: Cell cycle analysis, subG1 accumulation; assay type: cell-based
iNOS protein expression = test: Western blot of iNOS expression in LPS-stimulated RAW 264.7 cells; assay type: cell-based; conditions: 34 μM; for effect on iNOS protein expression: LPS-stimulated RAW 264.7 cells; for relative iNOS protein expression: relative to LPS-treated control, LPS 1 μg/mL, 18 h
[5] = cell culture medium, 37 °C, 24 h

Structure (SMILES)	QR1 CD (concentration to double the expression of QR1) [1] [µM]	effect on iNOS protein expression (iNOS protein expression)	relative iNOS protein expression (iNOS protein expression)	other results
O=S(=O)([O-])Oc1ccc(/C=C/c2cc(O)cc(OS(=O)(=O)[O-])c2)cc1.[K+].[K+] [compound 3, Resveratrol Dipotassium 3,4′-Sulfate]	> 10.1			
O=S(=O)([O-])Oc1ccc(/C=C/c2cc(OS(=O)(=O)[O-])cc(OS(=O)(=O)[O-])c2)cc1.[K+].[K+].[K+] [compound 2, Resveratrol Tripotassium 3,5,4′-Sulfate]	> 11.7			DPPH free radical scavenging [2]: inactive
O=S(=O)([O-])Oc1cc(/C=C/c2ccc(O)cc2)cc(OS(=O)(=O)[O-])c1.[K+].[K+] [compound 4, Resveratrol Tripotassium 3,5-Sulfate]	> 10.1			
Oc1ccc(/C=C/c2cc(O)cc(O)c2)cc1 [Resveratrol, 3,5,4′-trihydroxystilbene, reference compound]		moderately suppressed the expression of iNOS		remaining at 0 h ([3]; RPMI 1640 cell culture medium): 100 ± 0.3%; remaining at 24 h ([3]; RPMI 1640 cell culture medium): 46.8 ± 8.7%; degradation during 24 h [3, 5]: ~ 50%; accumulation of HL-60 cells in subG1 [4]: active
O=S(=O)([O-])Oc1ccc(/C=C/c2cc(O)cc(O)c2)cc1.[K+] [compound 7, Resveratrol Potassium 4′-Sulfate]	> 6.9	moderately suppressed the expression of iNOS	0.67	remaining at 0 h ([3]; buffer): 100 ± 2.2%; remaining at 12 h ([3]; buffer): 95.1 ± 3%; remaining at 24 h ([3]; buffer): 98.8 ± 3.1%; stability [3, 5]: stable for 24 h
O=S(=O)([O-])Oc1cc(O)cc(/C=C/c2ccc(O)cc2)c1.[K+] [compound 5, Resveratrol Potassium 3-Sulfate]		moderately suppressed the expression of iNOS	0.54	
